# Assay results: ChEMBL document CHEMBL4811216, “Chemotherapy for human schistosomiasis: how far have we come? What's new? Where do we go from here?” (RSC Med Chem, 2020)
# Tests used:
# [1] = target: T1, Histone deacetylase 8 (Homo sapiens, UniProt Q9BY41); experiment: Inhibition of human HDAC8 using Fluor de Lys as substrate by fluorimetric method
# T1 sequence (Q9BY41 whole entry): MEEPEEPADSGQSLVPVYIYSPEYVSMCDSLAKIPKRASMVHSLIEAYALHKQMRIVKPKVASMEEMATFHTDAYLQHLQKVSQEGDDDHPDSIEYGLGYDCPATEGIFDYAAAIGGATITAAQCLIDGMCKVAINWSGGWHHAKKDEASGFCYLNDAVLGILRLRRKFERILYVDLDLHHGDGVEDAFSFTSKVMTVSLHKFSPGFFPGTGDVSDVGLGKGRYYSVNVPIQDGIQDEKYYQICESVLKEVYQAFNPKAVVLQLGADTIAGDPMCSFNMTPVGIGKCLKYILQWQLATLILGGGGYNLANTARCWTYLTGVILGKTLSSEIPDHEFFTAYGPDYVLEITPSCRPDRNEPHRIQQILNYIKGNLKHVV
# [2] = target: T2, Protein deacetylase HDAC6 (Homo sapiens, UniProt Q9UBN7); experiment: Inhibition of human HDAC6 using Z-Lys(Ac)-AMC as substrate by fluorimetric method
# T2 sequence (Q9UBN7 whole entry): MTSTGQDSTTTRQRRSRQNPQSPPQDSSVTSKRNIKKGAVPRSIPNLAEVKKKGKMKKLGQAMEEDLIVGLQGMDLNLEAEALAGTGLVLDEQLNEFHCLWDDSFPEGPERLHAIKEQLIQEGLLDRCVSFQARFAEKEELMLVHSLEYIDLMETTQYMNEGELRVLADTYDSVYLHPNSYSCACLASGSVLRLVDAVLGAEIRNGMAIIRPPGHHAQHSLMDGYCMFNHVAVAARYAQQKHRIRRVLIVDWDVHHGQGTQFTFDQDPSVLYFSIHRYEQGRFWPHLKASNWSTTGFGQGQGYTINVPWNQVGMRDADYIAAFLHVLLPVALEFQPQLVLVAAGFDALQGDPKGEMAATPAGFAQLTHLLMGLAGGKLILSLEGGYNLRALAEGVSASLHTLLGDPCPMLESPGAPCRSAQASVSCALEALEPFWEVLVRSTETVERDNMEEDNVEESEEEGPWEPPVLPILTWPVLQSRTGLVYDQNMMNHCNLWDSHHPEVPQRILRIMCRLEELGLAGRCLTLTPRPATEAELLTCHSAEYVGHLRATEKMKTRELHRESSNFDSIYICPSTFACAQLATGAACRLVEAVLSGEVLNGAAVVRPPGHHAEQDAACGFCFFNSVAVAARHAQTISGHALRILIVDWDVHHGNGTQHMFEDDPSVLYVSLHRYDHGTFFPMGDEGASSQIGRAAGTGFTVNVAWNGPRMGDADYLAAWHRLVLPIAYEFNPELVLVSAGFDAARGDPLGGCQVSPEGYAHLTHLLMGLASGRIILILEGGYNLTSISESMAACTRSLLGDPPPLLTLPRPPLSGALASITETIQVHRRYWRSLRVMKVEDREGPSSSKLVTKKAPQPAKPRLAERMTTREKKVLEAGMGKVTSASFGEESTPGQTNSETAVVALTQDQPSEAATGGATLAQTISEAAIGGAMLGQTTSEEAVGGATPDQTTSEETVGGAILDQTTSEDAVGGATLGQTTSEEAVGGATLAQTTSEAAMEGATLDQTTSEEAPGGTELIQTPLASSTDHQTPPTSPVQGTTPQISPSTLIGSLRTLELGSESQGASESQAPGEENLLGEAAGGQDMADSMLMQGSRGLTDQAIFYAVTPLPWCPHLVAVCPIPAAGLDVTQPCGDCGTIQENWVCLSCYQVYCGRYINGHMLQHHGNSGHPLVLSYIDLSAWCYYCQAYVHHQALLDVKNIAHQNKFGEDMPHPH
# [3] = target: T3, HDAC1 (histone deacetylase 1) (Homo sapiens, UniProt Q13547); experiment: Inhibition of human HDAC1 at 200 uM using Z-Lys(Ac)-AMC as substrate by fluorimetric method relative to control; conditions: HDAC1 enzyme, probe Z-Lys(Ac)-AMC
# T3 sequence (Q13547 whole entry): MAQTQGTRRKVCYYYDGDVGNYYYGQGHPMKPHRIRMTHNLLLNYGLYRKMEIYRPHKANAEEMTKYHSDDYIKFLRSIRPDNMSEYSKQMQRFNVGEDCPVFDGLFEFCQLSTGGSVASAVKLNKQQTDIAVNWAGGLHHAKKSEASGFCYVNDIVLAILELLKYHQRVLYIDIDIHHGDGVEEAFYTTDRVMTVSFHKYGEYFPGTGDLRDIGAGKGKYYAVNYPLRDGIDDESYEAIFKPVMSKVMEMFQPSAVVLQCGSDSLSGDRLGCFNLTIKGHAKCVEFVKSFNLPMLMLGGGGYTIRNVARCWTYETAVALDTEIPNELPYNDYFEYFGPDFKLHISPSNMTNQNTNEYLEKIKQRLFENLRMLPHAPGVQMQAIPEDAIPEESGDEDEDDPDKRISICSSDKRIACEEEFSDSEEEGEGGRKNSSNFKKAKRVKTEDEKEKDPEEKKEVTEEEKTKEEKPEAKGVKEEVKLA
# [4] = target: T4, Histone deacetylase 8 (Schistosoma mansoni, UniProt A5H660); experiment: Inhibition of Schistosoma mansoni HDAC8 using fluorogenic substrate by fluorescence method
# T4 sequence (A5H660 whole entry): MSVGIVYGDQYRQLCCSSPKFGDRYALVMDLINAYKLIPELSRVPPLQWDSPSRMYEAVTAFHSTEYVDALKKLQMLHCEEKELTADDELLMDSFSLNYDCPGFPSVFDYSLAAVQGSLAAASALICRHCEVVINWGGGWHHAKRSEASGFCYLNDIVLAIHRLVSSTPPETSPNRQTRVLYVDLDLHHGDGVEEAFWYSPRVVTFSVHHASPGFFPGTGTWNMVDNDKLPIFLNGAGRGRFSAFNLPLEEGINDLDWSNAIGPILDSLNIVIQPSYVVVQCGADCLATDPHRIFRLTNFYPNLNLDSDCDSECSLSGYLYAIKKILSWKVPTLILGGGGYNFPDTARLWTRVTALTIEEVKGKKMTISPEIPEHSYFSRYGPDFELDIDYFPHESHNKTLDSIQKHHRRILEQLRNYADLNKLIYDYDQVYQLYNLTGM
# [5] = target: T3, HDAC1 (histone deacetylase 1); experiment: Inhibition of human HDAC1 using Z-Lys(Ac)-AMC as substrate at 1 uM by fluorimetric method relative to control; conditions: HDAC1 enzyme, probe Z-Lys(Ac)-AMC
# [6] = tested on: Schistosoma japonicum; experiment: Schistosomicidal-activity against adult Schistosoma japonicum at 10 uM incubated for 72 hrs by inverted microscopic method relative to control; assay type: functional
# [7] = tested on: Schistosoma japonicum; experiment: Antischistosomal activity against Schistosoma japonicum infected in ICR mouse assessed as total worm reduction at 250 mg/kg, po administered as single dose relative to control; assay type: functional; design: scale not given: the % may be the effect or the level left
# [8] = target: T5, Cathepsin B1 isotype 1 (Schistosoma mansoni) (UniProt Q8MNY2); experiment: Inhibition of Schistosoma mansoni cathepsin B1 using Z-Phe-Arg-aminomethylcoumarin as substrate at 100 uM by fluorescence method relative to control
# T5 sequence (whole entry): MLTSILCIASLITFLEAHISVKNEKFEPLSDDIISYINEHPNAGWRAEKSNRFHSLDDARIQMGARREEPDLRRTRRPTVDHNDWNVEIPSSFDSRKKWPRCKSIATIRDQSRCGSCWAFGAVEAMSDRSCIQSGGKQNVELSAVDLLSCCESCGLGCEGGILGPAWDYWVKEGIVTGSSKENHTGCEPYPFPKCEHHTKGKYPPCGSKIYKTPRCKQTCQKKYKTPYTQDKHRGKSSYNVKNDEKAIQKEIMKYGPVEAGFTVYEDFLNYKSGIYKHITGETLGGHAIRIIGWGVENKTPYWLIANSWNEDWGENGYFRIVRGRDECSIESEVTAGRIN
# [9] = tested on: Schistosoma japonicum; experiment: Antischistosomal activity against Schistosoma japonicum assessed as worm mortality at 10 ug/ml incubated for 72 hrs by microscopic method relative to control; assay type: functional; conditions: dose 10 µg/ml
# [10] = tested on: Schistosoma mansoni; experiment: Schistosomicidal-activity against adult Schistosoma mansoni incubated overnight followed by replacement of medium and measured on day 5 by stereomicroscopy; assay type: functional, organism-based; conditions: 120 h
# [11] = tested on: Schistosoma haematobium; experiment: Antischistosomal activity against Schistosoma haematobium Egyptian infected in NMRI mouse assessed as worm burden reduction at 200 mg/kg, po measured after 14 days; assay type: functional; design: scale not given: the % may be the effect or the level left; conditions: time 14 day
# [12] = tested on: Schistosoma mansoni; experiment: Antischistosomal activity against Schistosoma mansoni Liberian infected in NMRI mouse assessed as worm burden reduction at 100 mg/kg, po measured after 14 days relative to control; assay type: functional; design: scale not given: the % may be the effect or the level left; conditions: time 14 day
# [13] = tested on: Schistosoma mansoni; experiment: Antischistosomal activity against Schistosoma mansoni LE assessed as worm mortality at 20 uM incubated for 72 hrs by microscopic method relative to control; assay type: functional
# [14] = tested on: Schistosoma mansoni; experiment: Antischistosomal activity against Schistosoma mansoni infected in NMRI mouse assessed as worm burden reduction at 200 mg/kg, po administered as single dose measured after 16 to 18 days; assay type: functional, organism-based; design: scale not given: the % may be the effect or the level left; conditions: time 16-18 day
# [15] = tested on: Schistosoma mansoni; experiment: Schistosomicidal-activity against Schistosoma mansoni LE assessed as seperation of worm couples at 25 uM measured within 120 hrs relative to control; assay type: functional
# [16] = tested on: Schistosoma mansoni; experiment: Antischistosomal activity against Schistosoma mansoni infected in NMRI mouse assessed as worm burden reduction at 100 mg/kg, po administered as single dose relative to control; assay type: functional; design: scale not given: the % may be the effect or the level left
# [17] = tested on: Schistosoma haematobium; experiment: Antischistosomal activity against adult Schistosoma haematobium assessed as reduction in worm viability at 100 uM measured after 48 hrs by microscopic method relative to control; assay type: functional
# [18] = tested on: Schistosoma haematobium; experiment: Antischistosomal activity against adult Schistosoma haematobium assessed as reduction in worm viability at 100 uM measured after 4 hrs by microscopic method relative to control; assay type: functional
# [19] = tested on: Schistosoma mansoni; experiment: Antischistosomal activity against adult Schistosoma mansoni measured after 72 hrs by microscopic method; assay type: functional, organism-based
# [20] = tested on: L6; experiment: Cytotoxicity against rat L6 cells measured after 72 hrs by alamar blue assay; assay type: functional, cell-based; conditions: L6, 72 h
# [21] = tested on: Schistosoma mansoni; experiment: Antischistosomal activity against male Schistosoma mansoni assessed as worm killing effect at 100 uM measured after 24 hrs by phase-contrast microscopy relative to control; assay type: functional
# [22] = tested on: Schistosoma mansoni; experiment: Antischistosomal activity against Schistosoma mansoni infected in Swiss albino mouse assessed as reduction in worm burden at 20 mg/kg, po administered for 5 days relative to control; assay type: functional; design: scale not given: the % may be the effect or the level left; conditions: time 5 day
# [23] = tested on: Schistosoma mansoni; experiment: Potentiation of praziquantel-induced antischistosomal activity against Schistosoma mansoni infected in Swiss albino mouse assessed as intestinal egg burden at 20 mg/kg, po administered for 5 days (reference value: 67%); assay type: functional; conditions: time 5 day
# [24] = tested on: Schistosoma mansoni; experiment: Antischistosomal activity against Schistosoma mansoni infected in Swiss albino mouse assessed as reduction in intestinal tissue egg burden at 20 mg/kg, po administered for 5 days relative to control; assay type: functional; design: scale not given: the % may be the effect or the level left; conditions: time 5 day
# [25] = tested on: Schistosoma mansoni; experiment: Potentiation of praziquantel-induced antischistosomal activity against Schistosoma mansoni infected in Swiss albino mouse assessed as worm burden at 20 mg/kg, po administered for 5 days (reference value: 60%); assay type: functional; conditions: time 5 day
structure (smiles),measurement,setting,value
CN1CCN(NC(=O)c2cccc(C(=O)NO)c2)CC1,IC50,[1],1310 nM
same,IC50,[2],7110 nM
same,inhibition at 200 µM,[3],15.3%
same,IC50,[4],750 nM
same,inhibition at 1 µM,[5],< 10%
O=C(C1CCCCC1)N1CC(=O)N2CCc3ccccc3C2C1 (stereo unspecified) [PRAZIQUANTEL],Activity,[6],37.5%
same,Activity,[7],62.4%
O=C(c1ccc(CCl)c([N+](=O)[O-])c1)N1CCOCC1,inhibition,[8],< 27%
OC(CN1CCCC1)Cn1c2ccc(Cl)cc2c2cc(Cl)ccc21 (stereo unspecified),Activity,[9],100%
O=C(C1CCCCC1)N1CC(=O)N2CCc3sccc3C2C1 (stereo unspecified),EC50,[10],900 nM
OC(c1cc(-c2ccccc2)nc2c(Cl)cc(Cl)cc12)C1CCCCN1 (stereo unspecified),Activity,[11],100%
same,Activity,[12],87%
CN(C)c1ccc(/C=C2\NC(=O)N(Cc3c(F)cccc3Cl)C2=S)cc1,Activity,[13],100%
Fc1ccc(Cl)cc1-c1nc(Nc2ccncc2)c2nccnc2n1,Activity,[14],51.6%
COc1cc([C@@H]2OC(=O)[C@@H]3[C@H]2C(=O)O[C@H]3c2cc(OC)c(O)c(OC)c2)cc(OC)c1O,Activity,[15],100%
O=C(CCl)N1CC(=O)N2CCc3sccc3C2C1 (stereo unspecified),Activity,[6],100%
CC(C)N(Cc1ccccc1)CC1CCc2cc(CCl)c([N+](=O)[O-])cc2N1 (stereo unspecified),Activity,[16],76.1%
same,Activity,[17],100%
same,Activity,[18],75%
same,IC50,[19],11100 nM
same,IC50,[20],> 73000 nM
COc1ccc(-c2nc(-c3ccccc3OC)[nH]c2-c2ccc(OC)cc2)cc1,Activity,[21],33%
same,Activity,[22],<17%
same,Activity,[23],83%
same,Activity,[24],<17%
same,Activity,[25],88%
